{
  "source": "patent US20230257715A1",
  "about": "“COMPOSITIONS AND METHODS FOR REGULATING ENTEROENDOCRINE CELL DIFFERENTIATION AND USES THEREOF” (The Children's Medical Center Corporation, priority 2020, published 2023)",
  "type_in_all_cases": "cell-based",
  "key": {"human duodenal enteroids [1]": {"system": "human duodenal enteroids", "test": "qPCR analysis of enteroendocrine and lineage markers in enteroids", "source_text": "For differentiation, enteroids were passaged and grown in GM for two days, to allow for ISC expansion, after which the organoids were transitioned to tissue-specific differentiation media (DM) with additional small molecules added as described (TABLE 1A and TABLE 1B). Media was changed every two days, with Tubastatin A being removed after the second day of differentiation. Enteroids and rectoids were taken for analysis after 14 days.\nTotal RNA was purified from individual wells using TRI®Reagent (Sigma) and the Direct-zol™ RNA kit (Zymo Research), following the manufacturer's protocol. RNA concentration was determined using a NanoDrop™ 1000 spectrophotometer (Life Technologies). RNA was treated with DNAse (Promega) and reverse transcribed using the High-Capacity cDNA Reverse Transcription Kit (Life Technologies). Gene expression analysis was then performed by Real Time quantitative PCR (qPCR) using a QuantStudio 6 Flex thermocycler (Life Technologies). Taqman primers from Life Technologies (TABLE 3) were used. 18S transcripts were used as the internal control and data were expressed using the 2^−ddCt method with Ct limit of 40. Fold change, unless otherwise stated, was compared to total RNA derived from adult whole mucosal tissue biopsies."}, "human duodenal enteroids [2]": {"system": "human duodenal enteroids", "test": "Single cell RNA sequencing of enteroids (cell type proportions, module score, scVelo trajectory)", "method": "To better assess the transcriptomic distinctions between cells from the various culture conditions, single cell RNA sequencing (scRNA-seq) on the 10× platform combined with sample hashing was utilized, allowing the assessment of the reproducibility of the findings from distinct donors. Enteroids from three individuals were grown in G2D12, RSP or AS, for a total of nine samples. After the 14-day protocol, enteroids were isolated and processed into a single-cell suspension and their condition and patient source were marked using Hashtag antibodies prior to pooling the samples together (Stoeckius, M. et al. Genome Biol 19, 224, doi:10.1186/s13059-018-1603-1 (2018).)^47. After labeling, cells were processed, and single-cell transcriptomes were generated.\nEnteroids were incubated in Cell Recovery solution for 40-60 minutes at 4° C. to remove the Matrigel® and then centrifuged at 500×g for 5 minutes at 4° C. To achieve single cell suspension, organoids were then incubated in 500 μL of TrypLE™ Express at 37° C. for 30 minutes and broken up by repeated pipetting using a bent P1000 pipette tip. Each sample was then diluted in 800 μL of 20% FBS in Advanced DMEM/F12, filtered through 37 μm mesh, and then centrifuged at 300×g for 10 minutes at 4° C. Dead cells were then removed using magnetic-activated cell sorting (MACS) separation following the manufacturer's protocol. Briefly, each sample was resuspended in 100 μL Dead Cell Removal MicroBeads (Miltenyi Biotec) and incubated at room temperature for 15 minutes. 400 μL of 1×Binding Buffer was then added to each sample, after which the samples were applied to prepared MACS columns placed in a MACS Separator. Flow-through containing live cells was collected. This was followed by washing the columns four times with 1× Binding Buffer, which were combined with the initial flow-through. These samples were then centrifuged at 800×g for 5 minutes at 4° C.\nSingle cells isolated after dead cell removal (see, Example 18) were labeled prior to sequencing with Totalseq™-B hashtag antibodies (Biolegend), targeted against CD298 and β2-microglobulin, per the manufacturer's protocol^47. Briefly, each of the nine samples (three separate differentiation conditions in three enteroid lines) were resuspended in 50 μL of Cell Staining Buffer (Biolegend) and blocked with […] of Human TruStain FcX^TM blocking reagent (Biolegend) for 10 minutes at 4° C. The supernatant was then removed, and each sample resuspended in 50 μL of Cell Staining Buffer containing […] of a unique Totalseq™-B hashtag antibody. Samples were incubated for 30 minutes at 4° C. and then washed three times in 3.5 mL of Cell Staining Buffer. The samples were then filtered through a 37 μm mesh, resuspended in 2% BSA in PBS at a concentration of 1500 cells/μL, and then pooled together. Of note, prior to the scRNA-seq experiment, antibody binding was verified using fluorophore-conjugated antibodies with the same binding specificity.\nA total of 180,000 cells as one pool were inputted across four channels, with a recovery rate of approximately 30,000 cells across all four channels. RNA libraries were prepared from single cells by the Single Cell Core at Harvard Medical School, Boston, Mass., using the 10× Chromium Single Cell 3′ Library Chip (V3.1) with dual indexed barcodes. Briefly, single cells were partitioned into Gel Beads in Emulsion (GEMs) by the Chromium Controller. […]"}, "human duodenal enteroids [3]": {"system": "human duodenal enteroids", "test": "qPCR analysis of enteroendocrine and lineage markers in enteroids", "details": "time-course of AS-treated enteroids, RNA every two days"}, "[4]": {"details": "three enteroid lines, 14-day protocol"}},
  "note": "Entries after “also recorded” stand apart in the source; their conditions may differ.",
  "data": [
    {"molecule": "CCn1cc(C(=O)O)c(=O)c2c(N)c(F)c(NC3CCCCC3)cc21", "note": "[AS, AS1842856]", "values": [
      {"measurement": "expression of the enterocyte marker ALP1 (qPCR)", "setting": "human duodenal enteroids [1]; compared to G14 and G2D12", "value": "reduced expression"},
      {"measurement": "other intestinal lineage marker mRNA expression (qPCR)", "setting": "human duodenal enteroids [1]; compared to G14 and G2D12", "value": "increased expression of other secretory and ISC markers, including ATOH1, MUC2, LYZ, and LGR5"},
      {"measurement": "EE marker mRNA expression (qPCR)", "setting": "human duodenal enteroids [1]; compared to G14 and G2D12, referenced to whole mucosa, normalized to 18S", "value": "induced similar mRNA expression trends as Rim and SP (RSP); also recorded: upregulation of multiple EE markers (CHGA, PAX4, PDX1, NEUROD1, NEUROG3, SST and GIP), many to levels approximating whole mucosa"},
      {"measurement": "EE marker mRNA expression, direct comparison of protocols (qPCR)", "setting": "human duodenal enteroids [1]; compared to RSP / AS alone, FIG. 5.1A and 5A", "value": "higher expression of CHGA, NEUROD1, NEUROG3, and SST"},
      {"measurement": "MUC2, ALP1 and LGR5 mRNA expression compared to those that received RSP alone", "setting": "human duodenal enteroids [1]; qPCR, FIG. 7.1A", "value": "decreased expression of MUC2 and ALP1 and increased expression of LGR5"},
      {"measurement": "EE Cell Gene Module Score, effect size between culture conditions (Cohen's d)", "setting": "human duodenal enteroids [2]; reference gene set from mouse EE cells", "value": "larger effect size than RSP"},
      {"measurement": "proportion of EE cells (scRNA-seq)", "setting": "human duodenal enteroids [2]; [4]", "value": 18, "unit": "%"},
      {"measurement": "proportion of enterocytes (scRNA-seq)", "setting": "human duodenal enteroids [2]; [4]", "value": 2.5, "unit": "%"},
      {"measurement": "proportion of goblet cells (scRNA-seq)", "setting": "human duodenal enteroids [2]; [4]", "value": 1.5, "unit": "%"},
      {"measurement": "proportion of stem cells (scRNA-seq)", "setting": "human duodenal enteroids [2]; [4]", "value": 42, "unit": "%"},
      {"measurement": "differentiation trajectory (scVelo RNA velocity)", "setting": "human duodenal enteroids [2]; vector field on UMAP", "value": "the majority of vectors moving towards the goblet cell cluster and then into the EE cluster"},
      {"measurement": "CHGA and SST transcript levels over time", "setting": "human duodenal enteroids [3]", "value": "detectable transcript levels by the sixth day of differentiation"},
      {"measurement": "NEUROD1 and NEUROG3 expression over time", "setting": "human duodenal enteroids [3]", "value": "showed increased expression around the fourth day of differentiation"}
    ]}
  ]
}
